Experimental data as given in ChEMBL document CHEMBL1909046, “DrugMatrix in vitro pharmacology data”.

What was measured:
[1] = DRUGMATRIX: Sodium/nucleoside co-transporter radioligand binding (ligand: nitrobenzylthioinosine); assay type: cell membranes, Cavia porcellus, Dunkin-Hartley, Cerebral cortex, Membrane; conditions: Not Active = under 50% inhibition at 10 µM
[2] = DRUGMATRIX: Serotonin (5-Hydroxytryptamine) 5-HT3 radioligand binding (ligand: [3H] GR-65630); assay type: cell membranes, Membrane; conditions: hek293; Not Active = under 50% inhibition at 10 µM
[3] = biological target: Substance-P receptor (Homo sapiens, UniProt P25103); assay type: cell membranes, CHO, Membrane; conditions: cho; note: in other assays of this panel Not Active means under 50% inhibition at 10 µM
Substance-P receptor, sequence (P25103 whole entry): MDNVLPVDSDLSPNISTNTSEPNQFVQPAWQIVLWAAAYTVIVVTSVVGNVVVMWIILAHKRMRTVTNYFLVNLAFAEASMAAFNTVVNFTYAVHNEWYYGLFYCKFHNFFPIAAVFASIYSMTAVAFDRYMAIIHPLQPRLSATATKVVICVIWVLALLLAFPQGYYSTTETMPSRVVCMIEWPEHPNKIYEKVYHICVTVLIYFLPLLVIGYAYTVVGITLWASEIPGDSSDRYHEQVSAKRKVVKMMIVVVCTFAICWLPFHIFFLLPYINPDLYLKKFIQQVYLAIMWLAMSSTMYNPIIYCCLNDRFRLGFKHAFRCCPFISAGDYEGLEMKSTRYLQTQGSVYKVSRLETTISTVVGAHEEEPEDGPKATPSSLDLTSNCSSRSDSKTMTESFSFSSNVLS

[4] = biological target: Cannabinoid receptor 1 (Homo sapiens, UniProt P21554); assay type: cell membranes, Chem-1, Membrane; conditions: chem-1; note: in other assays of this panel Not Active means under 50% inhibition at 10 µM
Cannabinoid receptor 1, sequence (P21554 whole entry): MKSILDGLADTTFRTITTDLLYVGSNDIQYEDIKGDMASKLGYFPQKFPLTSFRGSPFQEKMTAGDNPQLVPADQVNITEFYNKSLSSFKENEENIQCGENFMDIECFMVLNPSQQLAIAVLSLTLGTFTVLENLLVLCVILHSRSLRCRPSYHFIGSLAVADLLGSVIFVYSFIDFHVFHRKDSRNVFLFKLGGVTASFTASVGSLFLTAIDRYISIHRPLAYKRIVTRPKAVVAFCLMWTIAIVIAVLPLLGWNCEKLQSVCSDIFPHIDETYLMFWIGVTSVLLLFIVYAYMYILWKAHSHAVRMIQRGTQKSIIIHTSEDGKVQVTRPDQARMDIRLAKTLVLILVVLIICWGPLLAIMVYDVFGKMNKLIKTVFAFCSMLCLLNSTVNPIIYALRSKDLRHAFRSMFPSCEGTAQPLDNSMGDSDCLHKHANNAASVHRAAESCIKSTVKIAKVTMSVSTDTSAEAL

[5] = biological target: T1, D(4) dopamine receptor (Homo sapiens, UniProt P21917); test: DRUGMATRIX: Dopamine D4.2 radioligand binding (ligand: [3H] Spiperone); assay type: cell membranes, CHO-K1, Membrane; conditions: cho-k1; Not Active = under 50% inhibition at 10 µM
T1 sequence (P21917 whole entry): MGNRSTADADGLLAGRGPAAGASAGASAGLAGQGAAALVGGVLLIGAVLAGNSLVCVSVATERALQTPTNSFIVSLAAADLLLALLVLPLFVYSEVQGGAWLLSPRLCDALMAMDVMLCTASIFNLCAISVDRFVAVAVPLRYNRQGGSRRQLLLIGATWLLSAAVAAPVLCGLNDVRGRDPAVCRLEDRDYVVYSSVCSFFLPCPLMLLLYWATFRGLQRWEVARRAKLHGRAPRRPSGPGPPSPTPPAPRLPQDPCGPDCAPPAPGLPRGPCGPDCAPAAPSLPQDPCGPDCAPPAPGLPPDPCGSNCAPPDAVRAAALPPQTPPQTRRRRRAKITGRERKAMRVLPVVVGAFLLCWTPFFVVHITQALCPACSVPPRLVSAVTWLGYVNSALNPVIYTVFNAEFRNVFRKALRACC

[6] = biological target: T2, Polyunsaturated fatty acid lipoxygenase ALOX15 (Oryctolagus cuniculus, UniProt P12530); test: biochemical; assay type: tissue-based, Reticulocytes;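 note: inhibition of 15-lipoxygenase enzyme activity measured with linoleic acid as the substrate; in other assays of this panel Not Active means under 50% inhibition at 10 µM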
T2 sequence (P12530 whole entry): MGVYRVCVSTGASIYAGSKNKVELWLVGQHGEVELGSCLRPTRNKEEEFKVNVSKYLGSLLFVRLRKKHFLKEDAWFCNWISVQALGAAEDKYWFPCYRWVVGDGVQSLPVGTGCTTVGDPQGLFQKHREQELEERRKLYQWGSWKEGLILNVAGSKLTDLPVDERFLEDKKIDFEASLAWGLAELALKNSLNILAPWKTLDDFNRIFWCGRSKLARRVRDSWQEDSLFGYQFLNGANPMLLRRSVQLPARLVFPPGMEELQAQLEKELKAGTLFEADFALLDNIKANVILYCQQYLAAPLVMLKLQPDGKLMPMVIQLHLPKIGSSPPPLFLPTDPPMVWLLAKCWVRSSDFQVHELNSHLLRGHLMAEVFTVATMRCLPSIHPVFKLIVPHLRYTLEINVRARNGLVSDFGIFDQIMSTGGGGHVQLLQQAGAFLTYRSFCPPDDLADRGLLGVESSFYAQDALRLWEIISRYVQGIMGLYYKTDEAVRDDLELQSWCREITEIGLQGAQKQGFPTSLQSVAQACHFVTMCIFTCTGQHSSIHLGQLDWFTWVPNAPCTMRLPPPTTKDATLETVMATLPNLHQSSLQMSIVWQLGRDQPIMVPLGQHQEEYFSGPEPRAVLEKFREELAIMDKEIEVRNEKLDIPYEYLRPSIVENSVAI

[7] = biological target: Delta-type opioid receptor (Homo sapiens, UniProt P41143); assay type: cell membranes, HEK293, Membrane; note: in other assays of this panel Not Active means under 50% inhibition at 10 µM
Delta-type opioid receptor, sequence (P41143 whole entry): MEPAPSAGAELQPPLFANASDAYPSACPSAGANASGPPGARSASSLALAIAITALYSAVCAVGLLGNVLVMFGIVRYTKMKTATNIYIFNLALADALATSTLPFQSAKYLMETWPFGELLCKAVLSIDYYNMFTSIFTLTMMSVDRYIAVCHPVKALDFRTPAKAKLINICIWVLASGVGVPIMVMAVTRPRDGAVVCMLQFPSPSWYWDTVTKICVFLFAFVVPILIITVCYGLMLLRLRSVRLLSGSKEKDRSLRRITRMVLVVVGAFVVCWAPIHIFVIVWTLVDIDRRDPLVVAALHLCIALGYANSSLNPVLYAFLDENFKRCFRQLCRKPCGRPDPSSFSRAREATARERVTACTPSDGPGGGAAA

[8] = DRUGMATRIX: Purinergic P2X radioligand binding (ligand: [3H] alpha, beta-Methylene-ATP); assay type: cell membranes, Oryctolagus cuniculus, New Zealand albino, Urinary bladder, Membrane; conditions: Not Active = under 50% inhibition at 10 µM

SMILES	IC50 [1]	Ki [1]	IC50 [2]	Ki [2]	IC50 [3]	IC50 [4]	IC50 [5]	IC50 ([6]; reticulocytes)	IC50 ([7]; hek293)	IC50 [8]	Ki [8]	IC50 ([6]; read-out: IC50) [µM]	IC50 ([7]; read-out: IC50) [µM]	Ki ([7]; read-out: Ki) [µM]
CCOc1nc2cccc(C(=O)O)c2n1Cc1ccc(-c2ccccc2-c2nnn[nH]2)cc1	Not Active	Not Active	Not Active	Not Active	Not Active	Not Active	Not Active	Not Active	Not Active	Not Active	Not Active	–	–	–
O=C(O)CCCc1cccs1	Not Active	Not Active	Not Active	Not Active	Not Active	Not Active	Not Active	Not Active	Not Active	Not Active	Not Active	–	–	–
COc1ccccc1N	Not Active	Not Active	Not Active	Not Active	Not Active	Not Active	Not Active	–	Not Active	Not Active	Not Active	2.05	–	–
O=C(c1ccccc1F)N1CCC(Cc2ccccc2)CC1	Not Active	Not Active	Not Active	Not Active	Not Active	Not Active	Not Active	Not Active	Not Active	Not Active	Not Active	–	–	–
Cc1c(O)cccc1C(=O)N[C@@H](CSc1ccccc1)[C@H](O)CN1C[C@H]2CCCC[C@H]2C[C@H]1C(=O)NC(C)(C)C	Not Active	Not Active	Not Active	Not Active	Not Active	Not Active	Not Active	–	–	Not Active	Not Active	13.8	66.1	23.3
CC(O)COC[C@H]1O[C@@H]2O[C@H]3[C@H](O)[C@@H](O)[C@@H](O[C@H]4[C@H](O)[C@@H](O)[C@@H](O[C@H]5[C@H](O)[C@@H](O)[C@@H](O[C@H]6[C@H](O)[C@@H](O)[C@@H](O[C@H]7[C@H](O)[C@@H](O)[C@@H](O[C@H]8[C@H](O)[C@@H](O)[C@@H](O[C@H]1[C@H](O)[C@H]2O)O[C@@H]8COCC(C)O)O[C@@H]7COCC(C)O)O[C@@H]6COCC(C)O)O[C@@H]5COCC(C)O)O[C@@H]4COCC(C)O)O[C@@H]3COCC(C)O (stereo partly drawn) [2-HYDROXYPROPYL-BETA-CYCLODEXTRIN]	Not Active	Not Active	Not Active	Not Active	Not Active	Not Active	Not Active	Not Active	Not Active	Not Active	Not Active	–	–	–
NC(=O)c1cccc(N)c1 [3-AMINOBENZAMIDE]	Not Active	Not Active	Not Active	Not Active	Not Active	Not Active	Not Active	Not Active	Not Active	Not Active	Not Active	–	–	–
C[C@H]1O[C@H](O[C@H]2[C@H](O)[C@@H](O)[C@@H](O[C@H]3[C@H](O)[C@@H](O)C(O)O[C@@H]3CO)O[C@@H]2CO)[C@H](O)[C@@H](O)[C@@H]1N[C@H]1C=C(CO)[C@@H](O)[C@H](O)[C@H]1O (stereo partly specified) [ACARBOSE]	Not Active	Not Active	Not Active	Not Active	Not Active	Not Active	Not Active	Not Active	Not Active	Not Active	Not Active	–	–	–
CC[C@H]1[C@@H]2C[C@H]3[C@@H]4N(C)c5ccccc5[C@]45C[C@@H]([C@@H]2[C@H]5O)N3[C@@H]1O [AJMALINE]	Not Active	Not Active	Not Active	Not Active	Not Active	Not Active	Not Active	Not Active	Not Active	Not Active	Not Active	–	–	–
NC12CC3CC(CC(C3)C1)C2 [AMANTADINE]	Not Active	Not Active	Not Active	Not Active	Not Active	Not Active	Not Active	Not Active	Not Active	Not Active	Not Active	–	–	–
NCCCNCCSP(=O)(O)O [AMIFOSTINE]	Not Active	Not Active	Not Active	Not Active	Not Active	Not Active	Not Active	Not Active	Not Active	Not Active	Not Active	–	–	–
CN(C)CCC=C1c2ccccc2CCc2ccccc21 [AMITRIPTYLINE]	Not Active	Not Active	Not Active	Not Active	Not Active	Not Active	Not Active	Not Active	Not Active	Not Active	Not Active	–	–	–
CC(=O)Oc1ccccc1C(=O)O [ASPIRIN]	Not Active	Not Active	Not Active	Not Active	Not Active	Not Active	Not Active	Not Active	Not Active	Not Active	Not Active	–	–	–
CC(C)c1c(C(=O)Nc2ccccc2)c(-c2ccccc2)c(-c2ccc(F)cc2)n1CC[C@@H](O)C[C@@H](O)CC(=O)O [ATORVASTATIN]	Not Active	Not Active	Not Active	Not Active	Not Active	Not Active	Not Active	Not Active	Not Active	Not Active	Not Active	–	–	–
CC(=O)OC[C@H]1O[C@@H](n2ncc(=O)[nH]c2=O)[C@H](OC(C)=O)[C@@H]1OC(C)=O [AZARIBINE]	Not Active	Not Active	Not Active	Not Active	Not Active	Not Active	Not Active	Not Active	Not Active	Not Active	Not Active	–	–	–
C[C@H]1[C@H](NC(=O)/C(=N\OC(C)(C)C(=O)O)c2csc(N)n2)C(=O)N1S(=O)(=O)O [AZTREONAM]	Not Active	Not Active	Not Active	Not Active	Not Active	Not Active	Not Active	Not Active	Not Active	Not Active	Not Active	–	–	–
O=C(O)CCNC(=O)c1ccc(/N=N/c2ccc(O)c(C(=O)O)c2)cc1 [BALSALAZIDE]	Not Active	Not Active	Not Active	Not Active	Not Active	Not Active	Not Active	Not Active	Not Active	Not Active	Not Active	–	–	–
COc1cc(OC)c(C(=O)CCCN2CCCC2)c(OC)c1 [BUFLOMEDIL]	Not Active	Not Active	Not Active	Not Active	Not Active	Not Active	Not Active	Not Active	Not Active	Not Active	Not Active	–	–	–
Cn1c(=O)c2c(ncn2C)n(C)c1=O [CAFFEINE]	Not Active	Not Active	Not Active	Not Active	Not Active	Not Active	Not Active	Not Active	Not Active	Not Active	Not Active	–	–	–
ClC(Cl)(Cl)Cl [CARBON TETRACHLORIDE]	Not Active	Not Active	Not Active	Not Active	Not Active	Not Active	Not Active	Not Active	Not Active	Not Active	Not Active	–	–	–
